Test results from patent US9814720B2, “Compositions and methods of inhibiting IL-17 expression of neutrophils” (priority 2014, dated 2017).

Legend:
IL-17RC [1] = assay: IL-17RC gene expression by qPCR in IL-6/23-stimulated murine neutrophils; format: cell-based; conditions: IL-6/23 1 h, FIG. 6A
From the text: Total bone marrow-derived cells were isolated from mouse femurs and tibias by flushing with RPMI and an 18-gauge needle. Erythrocytes were lysed with 1× lysis buffer (eBioscience), and bone marrow cells were separated on a Percoll (Fisher) gradient by density centrifugation (52%, 69%, and 78%). Cells at the 69-78% interface were harvested, and neutrophil purity (>98%) confirmed by flow cytometry and Wright-Giemsa staining.
(§1) Murine or human neutrophils were suspended at a density of 10^6 cells/ml and incubated with […] of recombinant mouse or human IL-6 and 2 μg/ml IL-23 in RPMI, and the cells were maintained for 1-3 h at 37° C. in 5% CO2. Various inhibitors were used for assessing STAT3 activation. For STAT3, neutrophils were treated with either the STAT3-SH2 inhibitor, Stattic (20 μM) obtained from Tocris, or the JAK-1, 2 inhibitor, INC424, (aka Ruxolitinib; 20 μM (Selleck BioChem)). For the determination of RORγt-dependent signaling, SR1001 (20 μM; Sigma) was used, which inhibits RORγt binding to the IL-17 promoter site. All inhibitors were added to neutrophils 2 h prior to recombinant IL-6 and IL-23 stimulation.
(§2) Neutrophil and corneal cell RNA was extracted using the RNeasy mini kit according to the manufacturer's directions (Qiagen, Valencia, Calif.). The quality of RNA was checked by spectrophotometry, and only samples with a 260/280 ratio of 2.0 were used to generate cDNA. The SuperScript First Strand synthesis system (Invitrogen) was used to generate cDNA according to the manufacturer's directions.
(§3) The SYBR green system (Applied Biosystems, Carlsbad, Calif.) was utilized for quantitative PCR (qPCR) using ABI Biosystems. PCR products were then run on a 1% agarose gel, and visualized using ethidium bromide. PCR products were compared to Actb (encoding the β-actin gene) or GAPDH as the controls for gel loading.

IL-17RC [2] = assay: IL-17RC gene expression by qPCR in IL-6/23-stimulated human neutrophils; format: cell-based; conditions: IL-6/23 1 h, FIG. 6B
Protocol: Neutrophils were isolated from peripheral blood of healthy donors. Peripheral blood was incubated in 3% Dextran, and neutrophils isolated by Ficoll gradient centrifugation (Fisher Scientific), with neutrophil purity determined by staining with Wright-Giemsa.
as §1, §2, §3

IL-17A = IL-17A expression in IL-6/23-stimulated murine bone marrow neutrophils (qPCR, ELISA, intracellular flow cytometry); format: cell-based, C57BL/6 mice; conditions: discussion restatement, species not stated
From the text: Total bone marrow-derived cells were isolated from mouse femurs and tibias by flushing with RPMI and an 18-gauge needle. Erythrocytes were lysed with 1× lysis buffer (eBioscience), and bone marrow cells were separated on a Percoll (Fisher) gradient by density centrifugation (52%, 69%, and 78%). Cells at the 69-78% interface were harvested, and neutrophil purity (>98%) confirmed by flow cytometry and Wright-Giemsa staining. IL-17A protein production was quantified by 2-site ELISA, according to the manufacturer's directions (R&D Biosciences). Murine or human neutrophils were suspended at a density of 10^6 cells/ml and incubated with […] of recombinant mouse or human IL-6 and 2 μg/ml IL-23 in RPMI, and the cells were maintained for 1-3 h at 37° C. in 5% CO2. Various inhibitors were used for assessing STAT3 activation. […] For the determination of RORγt-dependent signaling, SR1001 (20 μM; Sigma) was used, which inhibits RORγt binding to the IL-17 promoter site. All inhibitors were added to neutrophils 2 h prior to recombinant IL-6 and IL-23 stimulation. […] Ten corneas were pooled and analyzed by intracellular flow cytometry. […] Cells were analyzed using a C6 Accuri flow cytometer (BD). […] The SYBR green system (Applied Biosystems, Carlsbad, Calif.) was utilized for quantitative PCR (qPCR) using ABI Biosystems. […]

A. fumigatus hyphae [3] = assay: In vitro fungal killing assay (hyphal coincubation) with human neutrophils; format: cell-based, Aspergillus fumigatus; conditions: IL-6/23-stimulated, inhibitor 20 μM, FIG. 6F
From the text: (§4) Aspergillus strains—For cornea infections and in vitro fungal killing assays, an RFP expressing strain of A. fumigatus (Af-dsRed) was used. This strain is gpdA promoter driven to constitutively express monomeric dsRed. For subcutaneous “priming” injections, heat-killed, swollen conidia Aspergillus fumigatus strain Af-BP was used. For the Aspergillus hyphal extract used in ROS assay, A. fumigatus strain Af-BP hyphae were pulverized in liquid nitrogen, filtered through a 30 μm pre-separation filter (Miltenyi Biotec) and protein measured by the BCA method (Pierce). Aspergillus hyphal extracts (AspHE) were stored at −20° C. and used at a final concentration of 1 mg/ml.
(§5) A hyphal coincubation assay was used to study the ability of murine and human neutrophils to inhibit A. fumigatus hyphal growth as described. Briefly, 12,500 A. fumigatus dsRed expressing conidia (strain Af-dsRed) per 200 μl Sabouraud dextrose media were added to wells of black-walled 96 well plates with an optically clear bottom (CoStar 3720). After 6 h, the conidia had germinated and the hyphae became adherent to the wells, at which time the medium was removed.
(§6) Murine and human neutrophils were incubated with p-STAT3 (20 μM Stattic or 20 μM INC424) or RORγt inhibitors (20 μM SR1001) for 2 h. Then the cells were stimulated with […] of rIL-6 and 2 μg/ml of rIL-23 for 3 h, washed, and 2×10^5 bone marrow-derived murine neutrophils or 10^5 human peripheral blood neutrophils, with or without recombinant IL-17A, were added to each well with growing hyphae. RPMI media was used as positive control (unimpaired growth), and PBS was used as a negative control (no growth (data not shown)). After 16 h the wells were washed with PBS and the dsRed fungal mass was quantified in a 96-well fluorometer at 550/600 nm excitation/emission filter (Synergy HT, Biotek).

[4] = test system: bone marrow-derived murine neutrophils; assay: ROS production (CFDA) by murine bone marrow neutrophils incubated with Aspergillus hyphae; format: cell-based, C57BL/6 mice; conditions: IL-6/23-stimulated, inhibitor 20 μM, FIG. 6C
Protocol: as §6
(§7) In vitro ROS production measured by CFDA was previously described. Briefly, 100 μg/100 μl of A. fumigatus hyphal extract (AspHE) were incubated with 2×10^5 murine or human neutrophils. Neutrophils were treated for 1 h with 1 μM Carboxyfluorescein diacetate (H2CFDA (Sigma)), which will fluoresce following ROS oxidation. Neutrophils were collected and analyzed by flow cytometry. H2CFDA pulsed neutrophils that had not been incubated with AspHE were used to set the ROS histogram gate. The average mean intensity was calculated by Accuri flow software and graphed in Prism.

[5] = test system: human peripheral blood neutrophils; assay: ROS production (CFDA) by human peripheral blood neutrophils incubated with Aspergillus hyphae; format: cell-based; conditions: IL-6/23-stimulated, inhibitor 20 μM, FIG. 6E
Protocol: as §6, §7

A. fumigatus hyphae [6] = assay: In vitro fungal killing assay (hyphal coincubation) with murine neutrophils; format: cell-based, Aspergillus fumigatus; conditions: IL-6/23-stimulated, inhibitor 20 μM, FIG. 6D
From the text: as §4, §5, §6

| SMILES | IL-17RC expression (IL-17RC [1]) | IL-17RC expression (IL-17RC [2]) | IL-17 production in stimulated neutrophils (IL-17A) | fluorescent fungal mass (A. fumigatus hyphae [3]; plus rhIL-17A) | fluorescent fungal mass (A. fumigatus hyphae [3]; without rhIL-17A) | ROS production ([4]; plus rIL-17A) | ROS production ([4]; without rIL-17A) | ROS production ([5]; plus rhIL-17A) | ROS production ([5]; without rhIL-17A) | hyphal killing activity (A. fumigatus hyphae [6]; plus rIL-17A) | hyphal growth (fluorescent fungal mass) (A. fumigatus hyphae [6]; without rIL-17A) |
| --- | --- | --- | --- | --- | --- | --- | --- | --- | --- | --- | --- |
| N#CC[C@H](C1CCCC1)n1cc(-c2ncnc3[nH]ccc23)cn1 [INC424, Ruxolitinib] | did not inhibit | did not inhibit |  |  |  |  |  |  |  |  |  |
| CC(=O)Nc1nc(C)c(S(=O)(=O)Nc2ccc(C(O)(C(F)(F)F)C(F)(F)F)cc2)s1 [SR1001] | did not inhibit | did not inhibit | ablated | decreased fungal mass | no increase in ROS (FIG. 6E) or decrease in fluorescent fungal mass | ROS production was increased | not increased above the level produced by naïve neutrophils | increased ROS | no increase in ROS | enhanced hyphal killing activity was detected | did not further impede hyphal growth |
